Patent US11434221B2, “Pyrazine-4-carbamate or -urea derivatives as herbicides” (Syngenta Participations AG, priority 2017, dated 2022)

Columns and labels:
Format in all cases: in vivo
Parameters in all cases: key: 5=total damage to plant; 0=no damage to plant
[1] = tested on: Alopecurus myosuroides (ALOMY); test: Pre-emergence herbicidal activity, glasshouse pot test; conditions: Rate 1000 g/ha; sprayed one day after sowing; evaluated after 13 days
Experimental: (§1) Seeds of a variety of test species were sown in standard soil in pots: Triticum aestivium (TRZAW), Avena fatua (AVEFA), Alopecurus myosuroides (ALOMY), Echinochloa crus-galli (ECHCG), Lolium perenne (LOLPE), and Setaria faberi (SETFA). After cultivation for one day (pre-emergence) under controlled conditions in a glasshouse (at 24/16° C., day/night; 14 hours light; 65% humidity), the plants were sprayed with an aqueous spray solution derived from the formulation of the technical active ingredient in acetone/water (50:50) solution containing 0.5% Tween 20 (polyoxyethelyene sorbitan monolaurate, CAS RN 9005-64-5). The test plants were then grown in a glasshouse under controlled conditions (at 24/16° C., day/night; 14 hours light; 65% humidity) and watered twice daily. After 13 days, the test was evaluated (5=total damage to plant; 0=no damage to plant).

[2] = tested on: Avena fatua (AVEFA); test: as above; conditions: Rate 1000 g/ha; sprayed one day after sowing; evaluated after 13 days
Experimental: as §1

[3] = tested on: Echinochloa crus-galli (ECHCG); test: as above; conditions: Rate 1000 g/ha; sprayed one day after sowing; evaluated after 13 days
Experimental: as §1

[4] = tested on: Lolium perenne (LOLPE); test: as above; conditions: Rate 1000 g/ha; sprayed one day after sowing; evaluated after 13 days
Experimental: as §1

[5] = tested on: Setaria faberi (SETFA); test: as above; conditions: Rate 1000 g/ha; sprayed one day after sowing; evaluated after 13 days
Experimental: as §1

[6] = tested on: Triticum aestivium (TRZAW); test: as above; conditions: Rate 1000 g/ha; sprayed one day after sowing; evaluated after 13 days
Experimental: as §1

[7] = tested on: Alopecurus myosuroides (ALOMY); test: Post-emergence herbicidal activity, glasshouse pot test; conditions: Rate 1000 g/ha; sprayed after 8 days cultivation; evaluated after 13 days
Experimental: (§2) Seeds of a variety of test species were sown in standard soil in pots: Triticum aestivium (TRZAW), Avena fatua (AVEFA), Alopecurus myosuroides (ALOMY), Echinochloa crus-galli (ECHCG), Lolium perenne (LOLPE), and Setaria faberi (SETFA). After 8 days cultivation (post-emergence) under controlled conditions in a glasshouse (at 24/16° C., day/night; 14 hours light; 65% humidity), the plants were sprayed with an aqueous spray solution derived from the formulation of the technical active ingredient in acetone/water (50:50) solution containing 0.5% Tween 20 (polyoxyethelyene sorbitan monolaurate, CAS RN 9005-64-5). The test plants were then grown in a glasshouse under controlled conditions (at 24/16° C., day/night; 14 hours light; 65% humidity) and watered twice daily. After 13 days, the test was evaluated (5=total damage to plant; 0=no damage to plant).

[8] = tested on: Avena fatua (AVEFA); test: as above; conditions: Rate 1000 g/ha; sprayed after 8 days cultivation; evaluated after 13 days
Experimental: as §2

[9] = tested on: Echinochloa crus-galli (ECHCG); test: as above; conditions: Rate 1000 g/ha; sprayed after 8 days cultivation; evaluated after 13 days
Experimental: as §2

[10] = tested on: Lolium perenne (LOLPE); test: as above; conditions: Rate 1000 g/ha; sprayed after 8 days cultivation; evaluated after 13 days
Experimental: as §2

[11] = tested on: Setaria faberi (SETFA); test: as above; conditions: Rate 1000 g/ha; sprayed after 8 days cultivation; evaluated after 13 days
Experimental: as §2

[12] = tested on: Triticum aestivium (TRZAW); test: as above; conditions: Rate 1000 g/ha; sprayed after 8 days cultivation; evaluated after 13 days
Experimental: as §2

SMILES | Control of weed species after pre-emergence application, ALOMY (damage score 0-5) [1] | Control of weed species after pre-emergence application, AVEFA (damage score 0-5) [2] | Control of weed species after pre-emergence application, ECHCG (damage score 0-5) [3] | Control of weed species after pre-emergence application, LOLPE (damage score 0-5) [4] | Control of weed species after pre-emergence application, SETFA (damage score 0-5) [5] | Control of weed species after pre-emergence application, TRAZW (damage score 0-5) [6] | Control of weed species after post-emergence application, ALOMY (damage score 0-5) [7] | Control of weed species after post-emergence application, AVEFA (damage score 0-5) [8] | Control of weed species after post-emergence application, ECHCG (damage score 0-5) [9] | Control of weed species after post-emergence application, LOLPE (damage score 0-5) [10] | Control of weed species after post-emergence application, SETFA (damage score 0-5) [11] | Control of weed species after post-emergence application, TRAZW (damage score 0-5) [12]
C=C(C)c1nc(-c2cncc(F)c2)cnc1N(C(=O)OC(C)(C)C)C(=O)OC(C)(C)C [Compound H11] | 1 | 0 | 3 | 2 | 4 | 0 | 0 | 2 | 3 | 2 | 5 | 0
CC(C)(C)OC(=O)Nc1ncc(-c2cncc(F)c2)nc1C#N [Compound H10] | 0 | 0 | 2 | 0 | 4 | 0 | 0 | 1 | 2 | 1 | 5 | 0
CC(C)(C)OC(=O)N(C(=O)OC(C)(C)C)c1ncc(-c2cncc(F)c2)nc1C1CC1 [Compound H12] | 0 | 0 | 1 | 0 | 4 | 0 | 0 | 2 | 3 | 2 | 5 | 0
COC(=O)c1nc(-c2cncc(F)c2)cnc1N(C(=O)OC(C)(C)C)C(=O)OC(C)(C)C [Compound H26] | 0 | 0 | 0 | 0 | 5 | 0 | 0 | 1 | 3 | 0 | 5 | 1
CC(C)(C)OC(=O)Nc1ncc(-c2cncc(F)c2)nc1C(F)(F)F [Compound H4] | 0 | 3 | 4 | 1 | 5 | 0 | 0 | 3 | 5 | 2 | 5 | 1
Cc1nc(-c2cncc(F)c2)cnc1N(C(=O)OC(C)(C)C)C(=O)OC(C)(C)C [Compound H2, 2-bis(tert-butoxycarbonyl)amino-3-methyl-5-(5-fluoropyrid-3-yl)pyrazine] | 0 | 2 | 4 | 2 | 5 | 0 | 0 | 3 | 5 | 2 | 5 | 0
CSc1nc(-c2cncc(F)c2)cnc1NC(=O)OC(C)(C)C [Compound H24] | 0 | 2 | 2 | 1 | 5 | 0 | 0 | 3 | 4 | 2 | 5 | 0
CCc1nc(-c2cncc(F)c2)cnc1N(C(=O)OC(C)(C)C)C(=O)OC(C)(C)C [Compound H21] | 0 | 2 | 1 | 5 | 5 | 0 | 1 | 4 | 4 | 4 | 5 | 1
Cc1nc(-c2cncc(F)c2)cnc1NC(=O)OC(C)(C)C [Compound H17] | 0 | 2 | 4 | 3 | 4 | 0 | 2 | 3 | 4 | 3 | – | 0
